pKi: −log10 of the molar value. Read-outs that look alike come from different tables or passages of the source. Starred links: 1 amine or outer side, 2 acyl side, 3 side chain; linkers in the order of their positions; H or OH if unused. Non-standard residues stand in square brackets, D forms with d. Residues, ends and D or L forms follow the SMILES beside them. X1 = N=C(N)NCCC[C@H](N[*:1])C(=O)c1nc2ccc(C(=O)[*:2])cc2s1

This note sets out measurements from patent US11130780B2, “Inhibitors of growth factor activation enzymes” (Washington University, priority 2015, dated 2021).

What all share (assay type): biochemical
For one experiment, the target named is thrombin (Homo sapiens, UniProt P00734). Nature of the experiment: Chromogenic kinetic enzyme assay of thrombin. As to the method:
(§1) Inhibitors (11-pt serial dilutions, 0-20 μM final concentration) were serially diluted in DMSO (2% DMSO final concentration) and then mixed with recombinant thrombin (0.15 nM final concentration) or Factor Xa (0.35 nM final concentration) in TNC buffer (25 mM Tris, 150 mM NaCl, 5 mM CaCl2, 0.01% TRITON X-100, pH 8) using clear 384 well plates. […] Changes in absorbance at 405 nm were measured over time in a Biotek Synergy 2 plate (Winnoski, Vt.). Using GraphPad Prism version 6.04 software program, (GraphPad Software, San Diego, Calif., www.graphpad.com), a four parameter curve fit was used to determine the inhibitor IC50s from a plot of the mean reaction velocity versus the inhibitor concentration. Ki values were calculated from the IC50 values using the Cheng and Prusoff equation (Ki=IC50/(1+[S]/Km).

The target in another experiment is T1, hepsin (Homo sapiens, UniProt P05981).
T1 construct: purchased R&D Systems 4776-SE-010
T1 sequence (P05981 163-417 limits assumed): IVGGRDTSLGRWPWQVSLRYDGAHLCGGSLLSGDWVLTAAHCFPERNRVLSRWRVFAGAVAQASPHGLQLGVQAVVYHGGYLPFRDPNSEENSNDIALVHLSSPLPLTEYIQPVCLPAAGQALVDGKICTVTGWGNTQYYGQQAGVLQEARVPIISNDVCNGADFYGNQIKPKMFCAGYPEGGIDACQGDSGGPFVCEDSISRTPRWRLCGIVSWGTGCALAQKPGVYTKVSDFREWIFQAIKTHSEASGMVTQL
T1 sequence (P05981 45-162 partner limits assumed): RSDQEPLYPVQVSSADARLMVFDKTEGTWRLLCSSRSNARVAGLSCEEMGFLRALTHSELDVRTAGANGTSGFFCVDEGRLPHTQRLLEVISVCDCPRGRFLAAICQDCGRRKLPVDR
The experiment is described as follows: Fluorescent kinetic enzyme inhibitor assay of hepsin. In outline: (§2)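 Fluorescence (ex 380/em 460 nm) followed kinetically at room temperature; IC50 from four-parameter fit of mean velocity versus concentration, averaged over three experiments.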

For another experiment, the target named is T2, matriptase (Homo sapiens, UniProt Q9Y5Y6).
T2 construct: Charles Craik, UCSF (obtained from another laboratory)
T2 sequence (Q9Y5Y6 615-855 limits assumed): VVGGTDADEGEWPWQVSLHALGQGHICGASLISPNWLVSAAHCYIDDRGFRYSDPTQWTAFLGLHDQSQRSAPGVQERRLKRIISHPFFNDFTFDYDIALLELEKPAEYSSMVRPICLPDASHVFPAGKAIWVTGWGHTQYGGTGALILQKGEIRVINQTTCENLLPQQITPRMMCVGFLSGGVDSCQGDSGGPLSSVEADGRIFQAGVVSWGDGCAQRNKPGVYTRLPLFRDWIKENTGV
The experiment is described as follows: Fluorescent kinetic enzyme inhibitor assay of matriptase. In outline: as §2

For a further experiment, the target named is Factor Xa (Homo sapiens, UniProt P00742). The experiment is described as follows: Chromogenic kinetic enzyme assay of Factor Xa. As for the experimental part:
as §1

The target in the next experiment is T3, HGFA (Homo sapiens, UniProt Q04756).
T3 construct: His6 tag (N); seven amino acid spacer and seven amino acid TEV cleavage site (N); Honey Bee melittin signal peptide (N); made in house; host or cells: High 5 insect cells (baculovirus; virus raised in Sf9)
T3 sequence (Q04756 373-655): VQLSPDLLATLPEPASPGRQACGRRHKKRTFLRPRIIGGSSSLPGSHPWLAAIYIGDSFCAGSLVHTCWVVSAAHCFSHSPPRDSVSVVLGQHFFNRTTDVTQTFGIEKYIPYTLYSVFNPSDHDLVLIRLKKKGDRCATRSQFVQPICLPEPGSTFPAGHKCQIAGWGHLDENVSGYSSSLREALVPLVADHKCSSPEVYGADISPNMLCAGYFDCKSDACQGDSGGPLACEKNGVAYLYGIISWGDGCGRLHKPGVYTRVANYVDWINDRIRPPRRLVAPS
The experiment is described as follows: Fluorescent kinetic enzyme inhibitor assay of HGFA. As to conditions: read-out: HGFA Ki. In outline:
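Recombinant His-tagged HGFA residues 373-655 from insect cells, with substrate at Km. Inhibitors in 11-point dilutions, 0-20 μM final, 2% DMSO, fluorescence (ex 380/em 460 nm) followed over time at room temperature. IC50 from four-parameter fit of mean velocity, average of three experiments.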

The mark [1] stands for this setting: Table 6.2, headed Fluorogenic Assay, read-out: Thrombin Ki.
Setting [2] is: Table 6.2, headed Fluorogenic Assay, read-out: Factor Xa Ki.
The mark [3] stands for this setting: Table 6.1, Fluorogenic Assay, read-out: Hepsin Ki.

Factor Xa, sequence (P00742 235-488 limits assumed): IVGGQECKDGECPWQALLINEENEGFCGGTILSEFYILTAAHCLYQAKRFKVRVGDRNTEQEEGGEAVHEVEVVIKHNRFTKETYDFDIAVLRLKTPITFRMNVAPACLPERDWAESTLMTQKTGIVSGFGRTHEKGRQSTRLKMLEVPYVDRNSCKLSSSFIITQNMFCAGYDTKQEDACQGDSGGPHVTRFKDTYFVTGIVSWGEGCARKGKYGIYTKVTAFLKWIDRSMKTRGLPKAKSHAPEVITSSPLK
Factor Xa, sequence (P00742 41-179 partner limits assumed): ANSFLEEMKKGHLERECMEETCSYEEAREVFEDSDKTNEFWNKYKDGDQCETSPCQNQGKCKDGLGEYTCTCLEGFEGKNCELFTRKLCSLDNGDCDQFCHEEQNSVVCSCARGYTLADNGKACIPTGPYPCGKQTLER

`CC(=O)N[C@@H](CCCCN)C(=O)N[C@@H](CCC(N)=O)C(=O)N[C@@H](CC(C)C)C(=O)N[C@@H](CCCNC(=N)N)C(=O)c1nc2ccc(C(=O)N[C@H](C(N)=O)C(C)C)cc2s1` [Compound 7055, Ac-KQLR(SEQ ID NO: 1)-Kbt-Val—NH2] (Ac-KQL[X1]V-NH2): the pKi at thrombin (setting [1]) was 5.49; at hepsin (read-out: hepsin Ki), 9.52; on matriptase, 8.15; at Factor Xa (setting [2]), 7.18; at HGFA (Table 6.1, Fluorogenic Assay) it was 7.92; at HGFA, 7.89.

As for `CC(=O)N[C@@H](CCCCN)C(=O)N[C@@H](CCCNC(=N)N)C(=O)N[C@@H](CC(C)C)C(=O)N[C@@H](CCCNC(=N)N)C(=O)c1nc2ccc(C(=O)N[C@H](C(N)=O)C(C)C)cc2s1` [Compound 7115, Ac-KRLR(SEQ ID NO: 8)-Kbt-Val—NH2] (Ac-KRL[X1]V-NH2), the pKi was 5.81 at thrombin (setting [1]); 8.13 at matriptase (Table 6.1, Fluorogenic Assay); 7.77 at Factor Xa (setting [2]); 8.23 at HGFA (Table 6.1, Fluorogenic Assay).

For the molecule `CC(=O)N[C@@H](CO)C(=O)N[C@@H](CCCCN)C(=O)N[C@@H](CC(C)C)C(=O)N[C@@H](CCCNC(=N)N)C(=O)c1nc2ccc(C(=O)N[C@H](C(N)=O)C(C)C)cc2s1` [Compound 7116, Ac-SKLR(SEQ ID NO: 10)-Kbt-Val— NH2] (Ac-SKL[X1]V-NH2), the negative logarithm of the Ki (pKi) at thrombin is 5.35; at hepsin (setting [3]), 9.72; on Factor Xa it was 6.41; at HGFA (Table 6.1, Fluorogenic Assay) it was 7.89.

Regarding `CC(=O)N[C@@H](CO)C(=O)N[C@@H](CCCCN)C(=O)N[C@@H](CC(C)C)C(=O)N[C@@H](CCCNC(=N)N)C(=O)c1nc2ccc(C(=O)N[C@@H](Cc3ccccc3)C(N)=O)cc2s1` [Compound 7125, Ac-SKLR(SEQ ID NO: 10)-Kbt-Phe— NH2] (Ac-SKL[X1]F-NH2), the pKi on thrombin (setting [1]) was 5.44; on hepsin (setting [3]) it was 9.85; on Factor Xa (setting [2]) it was 6.26; at HGFA (Table 6.1, Fluorogenic Assay), 7.76.

As for `CC(=O)N[C@@H](CO)C(=O)N[C@@H](CCCCN)C(=O)N[C@@H](CC(C)C)C(=O)N[C@@H](CCCNC(=N)N)C(=O)c1nc2ccc(C(=O)Nc3ccncc3)cc2s1` [Compound 7126, Ac-SKLR(SEQ ID NO: 10)-Kbt-4-pyridinylamide], the pKi at thrombin (setting [1]) is 5.46; on hepsin (setting [3]), 9.85; on Factor Xa (setting [2]) it was 6.66; on HGFA (Table 6.1, Fluorogenic Assay), 7.50.

Consider `CC(C)C[C@H](NC(=O)[C@@H](N)CCCNC(=N)N)C(=O)N[C@@H](CCCNC(=N)N)C(=O)c1nc2ccc(C(=O)N[C@H](C(N)=O)C(C)C)cc2s1` [Compound 7180, H-RLR-kbt V amide], for which the pKi on thrombin (setting [1]) was 6.26; at Factor Xa (setting [2]), 7.74; on HGFA (Table 6.1, Fluorogenic Assay), 7.90.

As for `CC(C)C[C@H](NC(=O)[C@@H](N)Cc1c[nH]c2ccccc12)C(=O)N[C@@H](CCCNC(=N)N)C(=O)c1nc2ccc(C(=O)N[C@H](C(N)=O)C(C)C)cc2s1` [Compound 7181, H-WLR-kbt V amide], the pKi at thrombin (setting [1]) is 7.39; at Factor Xa (setting [2]) it was 6.80; on HGFA (Table 6.1, Fluorogenic Assay) it was 7.13.

For the molecule `CC(C)C[C@H](NC(=O)[C@@H](N)CC(C)C)C(=O)N[C@@H](CCCNC(=N)N)C(=O)c1nc2ccc(C(=O)N[C@H](C(N)=O)C(C)C)cc2s1` [Compound 7182, H-LLR-kbt V amide], the negative-log Ki (pKi) was 6.99 at thrombin (setting [1]); 6.80 on Factor Xa (setting [2]); 7.09 on HGFA (Table 6.1, Fluorogenic Assay).

Regarding `CC(C)C[C@H](NC(=O)OCC1c2ccccc2-c2ccccc21)C(=O)N[C@@H](CCCNC(=N)N)C(=O)c1nc2ccccc2s1` [Compound 7185-11, Fmoc-LR-kbt], the pKi at thrombin (setting [1]) was 6.00; on Factor Xa (setting [2]) it was 6.39; on HGFA (Table 6.1, Fluorogenic Assay) it was 6.35.
